What was measured:
LoVo [1] = test: cells; conditions: Homo sapiens
Caco-2 = test: cells; conditions: Homo sapiens
[2] = target: T1, Dual specificity mitogen-activated protein kinase kinase 1 (Homo sapiens, UniProt Q02750)
[3] = target: Epidermal growth factor receptor (Homo sapiens, UniProt P00533)
[4] = target: T1, Dual specificity mitogen-activated protein kinase kinase 1; test: Inhibition of MEK1 phosphorylation in LoVo cells; format: functional, cell-based
LoVo [5] = test: Inhibition of tyrosine phosphorylation in LoVo cells; format: functional, cell-based; conditions: Homo sapiens
[6] = target: Serine/threonine-protein kinase AKT (Homo sapiens, UniProt P31751+Q9Y243+P31749); test: Inhibition of Akt phosphorylation in LoVo cells; format: functional, cell-based

T1 sequence (Q02750 whole entry): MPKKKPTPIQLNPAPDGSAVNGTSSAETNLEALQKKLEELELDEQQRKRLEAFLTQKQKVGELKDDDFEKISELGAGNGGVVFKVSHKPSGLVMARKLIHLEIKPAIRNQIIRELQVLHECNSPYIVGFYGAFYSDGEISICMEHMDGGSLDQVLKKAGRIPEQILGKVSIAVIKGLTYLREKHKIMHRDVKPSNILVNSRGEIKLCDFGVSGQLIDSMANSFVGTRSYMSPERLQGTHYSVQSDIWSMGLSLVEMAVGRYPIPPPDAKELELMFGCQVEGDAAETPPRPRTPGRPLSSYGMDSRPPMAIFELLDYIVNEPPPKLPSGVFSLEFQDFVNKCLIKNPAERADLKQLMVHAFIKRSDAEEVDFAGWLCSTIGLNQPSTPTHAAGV
Sequence of Epidermal growth factor receptor (P00533 whole entry): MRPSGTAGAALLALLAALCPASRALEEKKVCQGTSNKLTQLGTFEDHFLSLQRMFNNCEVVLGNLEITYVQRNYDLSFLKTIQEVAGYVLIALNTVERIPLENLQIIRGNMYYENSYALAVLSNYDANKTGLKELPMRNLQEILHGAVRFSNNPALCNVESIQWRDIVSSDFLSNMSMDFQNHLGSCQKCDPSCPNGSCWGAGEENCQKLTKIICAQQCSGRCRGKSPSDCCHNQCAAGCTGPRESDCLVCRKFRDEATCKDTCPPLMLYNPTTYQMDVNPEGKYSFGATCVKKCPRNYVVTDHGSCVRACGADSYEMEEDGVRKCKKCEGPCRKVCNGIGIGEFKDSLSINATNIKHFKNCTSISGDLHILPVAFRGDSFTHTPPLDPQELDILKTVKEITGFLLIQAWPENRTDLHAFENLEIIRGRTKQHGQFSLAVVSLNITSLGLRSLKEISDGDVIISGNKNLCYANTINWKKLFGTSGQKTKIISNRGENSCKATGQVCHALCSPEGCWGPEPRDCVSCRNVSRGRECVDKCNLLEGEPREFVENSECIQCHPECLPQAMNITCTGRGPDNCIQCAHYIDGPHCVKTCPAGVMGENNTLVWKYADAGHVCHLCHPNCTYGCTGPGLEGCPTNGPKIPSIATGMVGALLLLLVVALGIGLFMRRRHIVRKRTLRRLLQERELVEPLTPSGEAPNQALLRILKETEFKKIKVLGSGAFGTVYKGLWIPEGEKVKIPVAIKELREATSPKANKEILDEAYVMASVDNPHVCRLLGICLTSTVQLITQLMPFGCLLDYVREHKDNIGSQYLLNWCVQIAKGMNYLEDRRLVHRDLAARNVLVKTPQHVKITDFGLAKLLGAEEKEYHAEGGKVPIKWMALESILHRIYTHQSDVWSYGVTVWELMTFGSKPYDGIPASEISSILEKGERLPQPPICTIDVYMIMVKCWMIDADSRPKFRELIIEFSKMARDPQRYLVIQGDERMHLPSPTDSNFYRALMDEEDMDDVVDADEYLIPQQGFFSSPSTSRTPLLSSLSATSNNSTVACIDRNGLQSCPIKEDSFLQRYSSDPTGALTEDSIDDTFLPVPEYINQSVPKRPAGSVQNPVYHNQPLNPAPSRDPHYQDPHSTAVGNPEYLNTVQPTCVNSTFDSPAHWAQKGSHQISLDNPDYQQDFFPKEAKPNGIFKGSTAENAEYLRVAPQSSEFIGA

Row | SMILES | IC50 (LoVo [1]) [nM] | IC50 (Caco-2) [nM] | IC50 [2] [nM] | IC50 [3] [nM] | IC50 [4] [nM] | IC50 (LoVo [5]) [nM] | IC50 [6] [nM]
1 | COc1cc2c(Nc3ccc(Sc4ncc(C)n4C)c(Cl)c3)c(C#N)cnc2cc1OCCCN1CCOCC1 | 325 | > 1000 | 1 | – | – | – | –
2 | COc1cc2c(Nc3ccc(Sc4nccn4C)c(Cl)c3)c(C#N)cnc2cc1OCCCN1CCCC1 | 10 | > 1000 | 4 | – | – | – | –
3 | COc1cc2c(Nc3ccc(Sc4ccccn4)c(Cl)c3)c(C#N)cnc2cc1OCCCN1CCOCC1 | 200 | > 1000 | 8 | – | – | – | –
4 | COc1cc2c(Nc3ccc(Oc4ccccc4)cc3)c(C#N)cnc2cc1OCCCN1CCOCC1 | 400 | 5500 | 4 | > 1000 | > 1000 | > 1000 | > 1000
5 | COc1cc2c(Nc3ccc(Sc4nccn4C)cc3)c(C#N)cnc2cc1OCCCN1CCOCC1 | 43 | 4700 | – | – | – | – | –
6 | CCOc1cc2ncc(C#N)c(Nc3ccc(Sc4nccn4C)c(Cl)c3)c2cc1OCC | 7 | > 1000 | 10 | – | – | – | –
7 | COc1cc2c(Nc3ccc(Sc4nccn4C)c(Cl)c3)c(C#N)cnc2cc1OCCCN1CC[S+]([O-])CC1 | 36 | > 1000 | 2 | – | – | – | –
8 | COc1cc2c(Nc3ccc(Sc4nccn4C)c(Cl)c3)c(C#N)cnc2cc1OCCCN1CCOCC1 | 5 | > 1000 | 2 | > 1000 | 8 | > 1000 | > 1000
9 | COc1cc2c(Nc3ccc(Sc4nccn4C)c(Br)c3)c(C#N)cnc2cc1OCCCN1CCOCC1 | 5 | 5200 | 2 | – | – | – | –

The remaining lines, values ahead:

Row | IC50 (LoVo [1]) [nM] | IC50 (Caco-2) [nM] | IC50 [2] [nM] | IC50 [3] [nM] | IC50 [4] [nM] | IC50 (LoVo [5]) [nM] | IC50 [6] [nM] | SMILES
10 | 342 | 900 | 2 | – | – | – | – | COc1cc2c(Nc3ccc(Sc4nc(C)c(C)n4C)c(Cl)c3)c(C#N)cnc2cc1OCCCN1CCOCC1
11 | 56 | 2700 | 9 | – | – | – | – | COc1cc2c(Nc3ccc(Sc4nccs4)c(Cl)c3)c(C#N)cnc2cc1OCCCN1CCOCC1
12 | – | > 1000 | – | – | – | – | – | CCN1CCN(CCCOc2cc3ncc(C#N)c(Nc4ccc(Sc5nccn5C)c(Cl)c4)c3cc2OC)CC1
13 | 131 | > 1000 | – | – | – | – | – | O=C(NOCC1CC1)c1ccc(F)c(F)c1Nc1ccc(I)cc1Cl [CI-1040]
14 | 380 | 5500 | 212 | – | – | – | – | COc1cc2c(Nc3ccc(Cc4nccn4C)c(Cl)c3)c(C#N)cnc2cc1OCCCN1CCOCC1
15 | 36 | 3200 | – | – | – | – | – | COc1cc2c(Nc3ccc(Sc4nccn4C)c(C)c3)c(C#N)cnc2cc1OCCCN1CCOCC1
